Experimental findings from article PMC13237374 (Communications Chemistry, 2026) are described below.

What all share (type): physicochemical
Data set [1] can be described thus: Aβ42 ThT aggregation assay.
Protocol: It was incubated at different concentrations in the presence of 20 μM ThT quiescently at 37 °C in 96-well half-area non-binding plates (Corning 3881), with 100 μL per well and five replicate wells per concentration. An aluminum film coating minimized evaporation. The fluorescence emission of ThT at 480 nm upon excitation at 440 nm was monitored using a FLUOstar Omega plate-reader (BMG Labtech GmbH, Germany) using a cycle time of 300 s with 40 flashes per reading and 0.2 s settling time per cycle.
The nature of data set [2]: Unseeded ThT aggregation kinetics of medin monomer. The conditions noted are these: for Primary nucleation order nc, fit result: unseeded assay fitted individually.
Protocol: After removing outliers manually, the resultant data from kinetic assays were normalized and analyzed using the online platform AmyloFit 2.0[46] made for global aggregation kinetic data-fitting. […] Half-times of unseeded aggregation assays were calculated in the AmyloFit 2.0 platform. For comparison of aggregation half-times of unseeded and low-seeded reactions, data were normalized and fitted using GraphPad Prism 2.0 with2 y=ymin+ymax−ymin/1+t1/2/t^c where y is the normalized ThT fluorescence and c is a constant. All data were fitted with the corresponding model using 50 basin hops to ensure convergence, and the fit with the least MSE was considered the best fit. Two models were used with the consideration of the presence or absence of seeds: secondary nucleation dominated[11] and fragmentation dominated mechanisms[45]. […] The average fibril length for pre-formed aggregate seeds was assumed to be 10,000 monomers[46].
The nature of data set [3]: Low-seeded (1% seed:monomer) ThT aggregation assay of medin.
Protocol: After removing outliers manually, the resultant data from kinetic assays were normalized and analyzed using the online platform AmyloFit 2.0[46] made for global aggregation kinetic data-fitting. […] Half-times of unseeded aggregation assays were calculated in the AmyloFit 2.0 platform. For comparison of aggregation half-times of unseeded and low-seeded reactions, data were normalized and fitted using GraphPad Prism 2.0 with2 y=ymin+ymax−ymin/1+t1/2/t^c where y is the normalized ThT fluorescence and c is a constant. […]
Data set [4] is described as follows: High-seeded (20–50% seed:total protein) ThT aggregation assay of medin. The conditions noted are these: for Elongation rate constant k+, fit result: high-seeded assay fitted individually. Here is the method:
(§1) All assays were carried out at 37 °C in quiescent conditions at 100 µL sample volume per well in 96-well half-area non-binding plates (Corning 3881), with an aluminum film coating to minimize evaporation. […] ThT fluorescence emission at 480 nm, when excited at 440 nm, was monitored using a FLUOstar Omega plate-reader (BMG Labtech GmbH, Germany) using a cycle time of 180 s with 40 flashes per reading and 0.2 s settling time per cycle. The unseeded reactions were repeated thrice using three different batches of protein.
Amyloid aggregation was monitored using 20 µM ThT in replicate wells. The overnight-grown fibrils were sonicated for 15 s at 50% duty cycle and 10% power using a microtip sonicator (Bandelin Sonopuls, Germany) to produce seeds for subsequent seeded aggregation assays.
(§2) After removing outliers manually, the resultant data from kinetic assays were normalized and analyzed using the online platform AmyloFit 2.0[46] made for global aggregation kinetic data-fitting. All data representations have been produced in GraphPad Prism 2.0. Half-times of unseeded aggregation assays were calculated in the AmyloFit 2.0 platform. For comparison of aggregation half-times of unseeded and low-seeded reactions, data were normalized and fitted using GraphPad Prism 2.0 with2 y=ymin+ymax−ymin/1+t1/2/t^c where y is the normalized ThT fluorescence and c is a constant. All data were fitted with the corresponding model using 50 basin hops to ensure convergence, and the fit with the least MSE was considered the best fit. Two models were used with the consideration of the presence or absence of seeds: secondary nucleation dominated[11] and fragmentation dominated mechanisms. […] The average fibril length for pre-formed aggregate seeds was assumed to be 10,000 monomers.

The nature of data set [5]: Global kinetic fitting (AmyloFit 2.0) of unseeded, low-seeded and high-seeded medin ThT data. As to the method:
as §2

Data set [6] in a line: Salt (NaCl) titration of medin ThT aggregation kinetics. The conditions noted are these: [Medin] 75 nM, N = 1, n = 5. As to the method:
as §1
For salt titration experiments, 20 mM NaPi 1 M NaCl 0.2 mM EDTA pH 7.4 was diluted to the final reaction mixtures at final NaCl concentrations of 0, 40, 150, and 500 mM before incubation in replicate wells of a non-binding plate and monitoring of aggregation kinetics as described above.
as §2

Data set [7] is described as follows: Critical concentration of medin aggregation from ThT amplitude. Particulars: half-maximal point of sigmoidal fit of ThT amplitude at 0–40 nM monomer; 20 µM ThT, pH 7.4, 37 °C, quiescent.
Data set [8] in a line: Dynamic light scattering (DLS) of medin. Here is the method:
Samples were withdrawn at different time intervals, and the particle size distribution was monitored at 20 °C in a Malvern Zetasizer Nano instrument (Malvern Instruments Limited, United Kingdom) at 70 µL volume (N = 3, n = 3). Two outliers were removed manually before data analysis.

Where [9] appears, read: unseeded assays, N = 3, fragmentation dominated, no seed.
The mark [10] stands for this setting: unseeded assays, N = 3, secondary nucleation dominated, no seed.
[11] abbreviates: secondary nucleation dominated model.
Setting [12] is: global data analysis, fragmentation dominated.
Where [13] appears, read: global data analysis, secondary nucleation dominated.

For “Aβ42: human amyloid-β 42 peptide, recombinantly produced, comparator amyloid”, the “concentrations at which no aggregation was observed within 24 hours” value in data set [1] (20 mM NaPi 0.2 mM EDTA pH 7.4, 37 °C, quiescent, 20 µM ThT) is on record as “below 117 nM”. For the same substance, the “aggregation half-time t1/2” value in data set [1] ([…] Aβ42, pH 7.4, 37 °C) came to 1.9 h.
With “medin: 50-residue peptide cleaved from lactadherin, forms aortic medial amyloid; produced recombinantly in E. coli”, in data set [2] (10 nM monomer, over 16 h, ThT), the “aggregation of 10 nM medin monomer” value is “no aggregation”. The “lowest concentration at which amyloid fibrils form spontaneously” value in data set [2] (physiological pH and temperature, quiescent solution) worked out at 25 nM. Also, the “Primary nucleation order nc, fit result” value in data set [2] (fragmentation dominated, no seed) is listed as ~ 1; in data set [2] (secondary nucleation dominated, no seed), ~ 1; in data set [5] (setting [12]), ~ 1; in data set [5] (setting [13]), ~ 1. The “primary nucleation reaction order nc” value in data set [2] (unseeded assay, secondary nucleation- or fragmentation-dominated spontaneous aggregation model) is ~ 1; in data set [5] (global analysis of all assays), around 1. In addition, the “Combined rate constant k+kn, average value” in data set [2] (setting [9]) was 7.3 M-1s-2; in data set [2] (unseeded assays, biological replicates N = 3 (different batches), secondary nucleation dominated, no seed) it was 0.1 M-1s-2. For the same substance, the “Combined rate constant k+k−, average value” in data set [2] (setting [9]) is 1.7 M-1s-2. The “Primary nucleation reaction order nc, average value” in data set [2] (setting [9]) was 1.4; in data set [2] (setting [10]), ~ 1. Also, the “Combined rate constant k+k2, average value” in data set [2] (setting [10]) is listed as 22.3 M-1s-2. Also, the “Secondary nucleation reaction order n2, average value” in data set [2] (setting [10]) is ~ 0. Also, in data set [3] (50–[…] monomer, pH 7.4, 37 °C, 20 µM ThT), the “rate constant of the monomer-independent secondary pathway (k2 or k−)” value was 4e-08 s⁻¹. Moreover, in data set [3] (setting [11]), the “secondary nucleation reaction order n2” value is reported as ~ 0. In data set [4] (as printed in the Introduction, physiological pH and temperature in vitro), the elongation rate constant is given as ~ 10^7 s^−1. Moreover, the “Elongation rate constant k+, fit result” value in data set [4] (fragmentation dominated model) was determined as 5.4e+07 M⁻¹ s⁻¹; in data set [4] (setting [11]) it was 5.34e+07 M⁻¹ s⁻¹; in data set [5] (setting [12]), 9.53e+06 M⁻¹ s⁻¹; in data set [5] (setting [13]), 9.46e+06 M⁻¹ s⁻¹. Further, the “elongation rate constant k+” value in data set [4] (high-seeded: 187.5–500 nM monomer + 187.5 nM pre-formed fibrils (20–50% seed:total protein), pH 7.4, 37 °C, quiescent, 20 µM ThT, AmyloFit fit of first phase) came out at 5e+07 M⁻¹ s⁻¹. The “primary nucleation rate constant kn” value in data set [5] (global analysis of unseeded, low-seeded and high-seeded data, saturated secondary nucleation (n2 = 0) or fragmentation model) was determined as 1e-08 s⁻¹. Moreover, the figures for the “Primary nucleation rate constant kn, fit result” value in data set [5] (setting [12]) and in data set [5] (setting [13]) were 1.15e-08 s⁻¹ and 1.13e-08 s⁻¹, respectively. In addition, in data set [5] (setting [12]), the “Secondary pathway rate constant k−, fit result” value came to 3.14e-07 s⁻¹. Besides, the “Secondary nucleation order n2, fit result” value in data set [5] (setting [13]) is ~ 0. Moreover, the “Secondary pathway rate constant k2, fit result” value in data set [5] (setting [13]) was found to be 3.23e-07 s⁻¹. Besides, the “Mean t1/2” value is 3.2 h in data set [6] ([NaCl] 0 mM), 2.4 h in data set [6] ([NaCl] 40 mM), 2.5 h in data set [6] ([NaCl] 150 mM) and 2.4 h in data set [6] ([NaCl] 500 mM). Also, in data set [7], the “critical concentration of medin aggregation” value was ~ 14 nM. Moreover, in data set [8] (10 µM medin after quiescent incubation at pH 7.4 and 37 °C, DLS), the “hydrodynamic diameter of aggregates” value is listed as 200–3200 nm. Besides, in data set [8] (10 µM medin monomer on ice, DLS), the “incubation time until first traces of higher molecular weight species” value is given as “at least 1.5 hours”. Besides, the “hydrodynamic diameters of monomeric and initial oligomeric species” value in data set [8] (10 µM medin, DLS at 20 °C, N = 3, n = 3) was 0.4–6 nm. The substance also showed a mean hydrodynamic diameter in data set [8] (purely monomeric medin, 10 µM in aggregation assay buffer, freshly eluted) of 0.67 nm.
